The values below come from patent publication US7879846B2, “Serine hydrolase inhibitors” (Kyorin Pharmaceutical Co.., Ltd., priority 2006, dated 2011).

SMILES strings stand for the structures.

In this assay the target is T1, Human sputum neutrophil elastase (Homo sapiens, UniProt P08246).
T1 construct: purchased Elastin Products Co; host or cells: human sputum (natural source)
T1 sequence (P08246 30-247 limits assumed): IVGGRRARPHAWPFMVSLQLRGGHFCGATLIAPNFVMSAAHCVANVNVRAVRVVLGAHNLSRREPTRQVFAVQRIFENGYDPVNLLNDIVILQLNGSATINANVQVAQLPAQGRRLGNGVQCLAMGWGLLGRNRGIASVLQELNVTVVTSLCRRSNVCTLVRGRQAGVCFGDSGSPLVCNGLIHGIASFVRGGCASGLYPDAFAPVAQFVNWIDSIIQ
In words: Inhibitor IC50 against human neutrophil elastase (fluorogenic MeOSuc-AAPV-AMC substrate). The format is biochemical. Conditions: 20 min preincubation, read-out: HNE IC50. On the procedure: Determination of Inhibitor IC50 Values Against Human Neutrophil Elastase
Human sputum neutrophil elastase (Elastin Products Co.) was diluted into Assay Buffer A (200 mM Tris pH 7.4, 1 mg/ml BSA) to a working concentration of 0.55 U/ml. […] DMSO alone was used as the negative control. MeOSuc-AAPV-AMC (Bachem) substrate was dissolved in DMSO to 20 mM and further diluted to 1 mM in Assay Buffer A immediately before use. Substrate was added to the elastase assay at a final concentration of 1×10^−4 M. The reaction was allowed to proceed for 20 minutes at room temperature and then quenched with acetic acid at a final concentration of 3% (v/v). […] Fluorescence intensity versus inhibitor concentration was plotted and fit to the Hill equation to quantify IC50 values.
Consider `Cc1cccc2nc(-c3cnccn3)oc(=O)c12` [Compound 5], for which the IC50 (as a rule, the concentration that inhibits the measured activity by half) is 0.061 to 0.15 µM. The figure for `Cc1cccc2nc(-c3cc[n+]([O-])cc3)oc(=O)c12` [Compound 6] is greater than 0.15 µM; for `O=c1oc(-c2cccs2)nc2ccccc12` [Compound 8] it is greater than 0.15 µM. Next, `Cc1cccc2nc(-c3ccncc3)oc(=O)c12` [Compound 9]: greater than 0.15 µM. Take `O=c1oc(-c2ccccn2)nc2cc(Cl)cc(Cl)c12` [Compound 11]: the IC50 was greater than 0.15 µM. The figure for `O=c1oc(-c2ccccn2)nc2cccc(Cl)c12` [Compound 12] is 0.061 to 0.15 µM. Take `O=c1oc(-c2cccnc2Oc2ccccc2)nc2cc(Cl)cc(Cl)c12` [Compound 14]: the IC50 is greater than 0.15 µM. As for `O=c1oc(-c2ccccn2)nc2ccccc12` [Compound 17], the IC50 was greater than 0.15 µM.

Regarding `Cc1cccnc1-c1nc2cccc(C)c2c(=O)o1` [Compound 19], the IC50 is greater than 0.15 µM.

Take `Cc1cccc2nc(-c3cccnc3Cl)oc(=O)c12` [Compound 20]: the IC50 lay within 0.016 to 0.06 µM.

Take `COc1ccc(-c2nc3cccc(C)c3c(=O)o2)c(OC)n1` [Compound 22]: the IC50 is less than 0.015 µM. As for `CSc1ncccc1-c1nc2cccc(C)c2c(=O)o1` [Compound 23], the half-inhibitory concentration (IC50) was in the range of 0.061 to 0.15 µM. Turning to `Cc1ccc(Sc2ncccc2-c2nc3cccc(C)c3c(=O)o2)cc1` [Compound 24], the IC50 is greater than 0.15 µM. The figure for `O=c1oc(-c2cccnc2Oc2ccc(Cl)cc2)nc2cccc(Cl)c12` [Compound 25] is 0.016 to 0.06 µM.

As for `CSc1ncccc1-c1nc2cccc(Cl)c2c(=O)o1` [Compound 27], the IC50 lay in the range of 0.061 to 0.15 µM. Next, `Cc1ccc(Sc2ncccc2-c2nc3cccc(Cl)c3c(=O)o2)cc1` [Compound 28]: 0.061 to 0.15 µM; `Cc1cccc2nc(-c3cccnc3SCCS(=O)(=O)c3ccccc3)oc(=O)c12` [Compound 29]: 0.016 to 0.06 µM; `O=c1oc(-c2cccnc2SCCS(=O)(=O)c2ccccc2)nc2cccc(Cl)c12` [Compound 30]: 0.016 to 0.06 µM. The figure for `Cc1cccc2nc(-c3cccnc3N3CCC[C@H]3C(=O)OC(C)(C)C)oc(=O)c12` [Compound 32] is 0.016 to 0.06 µM. The figure for `COC(=O)[C@H]1CCCN1c1ncccc1-c1nc2cccc(C)c2c(=O)o1` [Compound 33] is 0.016 to 0.06 µM. As to `Cc1cccc2nc(-c3cccnc3F)oc(=O)c12` [Compound 34], the IC50 is 0.061 to 0.15 µM. The figure for `Cc1cccc2nc(-c3cccnc3Oc3ccc4c(c3)OCO4)oc(=O)c12` [Compound 37] is 0.016 to 0.06 µM.

Take `COc1ccc(-c2nc3cccc(Cl)c3c(=O)o2)c(OC)n1` [Compound 38]: the IC50 was less than 0.015 µM. The figure for `CCSc1ncccc1-c1nc2cccc(C)c2c(=O)o1` [Compound 40] is greater than 0.15 µM; for `COc1cccc2nc(-c3cccnc3N(C)CC(=O)OCc3ccccc3)oc(=O)c12` [Compound 41] it is greater than 0.15 µM; for `COc1cccc2nc(-c3cccnc3N3CCC[C@H]3C(=O)OC(C)(C)C)oc(=O)c12` [Compound 42] it is greater than 0.15 µM.

With `COC(=O)[C@H]1CCCN1c1ncccc1-c1nc2cccc(OC)c2c(=O)o1` [Compound 43], the IC50 is greater than 0.15 µM.

On to `COc1cccc2nc(-c3cccnc3N3CCN(C)C(C)C3)oc(=O)c12` (stereo not drawn) [Compound 45], for which the IC50 was greater than 0.15 µM.

As to `COCCN(CCOC)c1ncccc1-c1nc2cccc(C)c2c(=O)o1` [Compound 55], the IC50 is greater than 0.15 µM. `Cc1cccc2nc(-c3cccnc3OCCOCCOCCOCc3ccccc3)oc(=O)c12` [Compound 56]: the IC50 was greater than 0.15 µM. The figure for `Cc1cccc2nc(-c3cccnc3OCCOCCOCCOCCO)oc(=O)c12` [Compound 57] is 0.061 to 0.15 µM; for `Cc1cccc2nc(-c3cccnc3OCCOCCOCCOCCOc3ncccc3C(=O)O)oc(=O)c12` [Compound 58] it is 0.061 to 0.15 µM. The figure for `Cc1cccc2nc(-c3cccnc3OCCOCCOCCOCCOc3ncccc3-c3nc4cccc(C)c4c(=O)o3)oc(=O)c12` [Compound 59] is 0.061 to 0.15 µM.
